{
  "source": "patent US20200155475A1",
  "about": "“Transdermal Drug Delivery System” (Avro Life Sciences, Inc., priority 2017, published 2020)",
  "key": {"[1]": {"assay": "Further experiments: permeation of small molecules through the patch matrix", "details": "molecules trapped in polymer matrix"}, "[2]": {"method": "(§1) Modified Franz Diffusion Cells were filled with 55 ml of phosphate buffer, and a skin simulating membrane was placed in each cell at air-water interface and secured with a holed cap. The cells were placed into a water bath and the temperature was equilibrated to 38° C. The drug-loaded patch was gently placed onto the membrane and pressed down lightly. At different time points, the drug solution was collected and replaced with fresh buffer, and ultraviolet (UV) absorbance was measured at 200-300 nm with clean quartz cuvettes, using standard curves to determine drug concentrations and cumulative drug release percentages over time.\nas §1, with “The permeation or flux of several drugs transdermally delivered to the skin was measured in vitro as a function of time using an artificial skin simulating membrane attached to a Franz diffusion cell at air-water interface. […] Modified” for “Modified”"}, "[3]": {"assay": "Percentage diffusion of 4-aminopyridine through the transdermal drug delivery system over time", "type": "in vitro ADME", "method": "(§2) The patch in the transdermal drug delivery system consisted of 23% (w/w) glycerol, 16% (w/w) gum Arabic, 11% (w/w) medium molecular weight chitosan, and 48% (w/w) lactic acid. The patch was prepared by casting the liquid matrix gel upon a suitable Teflon backing layer and drying for 18 hours at 55° C. The resulting diffusion profiles were obtained by conducting the same experiment three times. The patch samples indicate the number of times that the same experiment was conducted.\nThe patch in the transdermal drug delivery system consisted of 50% (w/w) glycerol, 14% (w/w) PVP, 18% (w/w) medium molecular weight chitosan, and 18% (w/w) lactic acid. The patch was prepared by casting the liquid matrix gel upon a suitable Teflon backing layer and drying for 3 hours at 80° C. The resulting diffusion profiles were obtained by conducting the same experiment eight times. The patch samples indicate the number of times that the same experiment was conducted.\nas §2, with “36%” for “23%”, “15.3% PVP, 0.7%” for “16%”, “9.5%” for “11%”, “38.5%” for “48%”, “5” for “18”, “80°” for “55°”\nThe percentage diffusion of 4-aminopyridine through the transdermal drug delivery system provided herein was measured over time, using different patch compositions. […] The patch was prepared by casting the liquid matrix gel upon a suitable Teflon backing layer and drying for 18 hours at 55° C.\nThe patch was prepared by casting the liquid matrix gel upon a suitable Teflon backing layer and drying for 3 hours at 80° C.\nThe patch was prepared by casting the liquid matrix gel upon a suitable Teflon backing layer and drying for 5 hours at 80° C."}},
  "data": [
    {"smiles": "CC(Cc1ccccc1)NCCn1cnc2c1c(=O)n(C)c(=O)n2C", "note": "(stereo not shown) [fenethylline]", "values": [
      {"measurement": "permeation into skin and bloodstream through the patch matrix", "setting": "[1]", "value": "cannot permeate"}
    ]},
    {"smiles": "CC(=O)CCCCn1c(=O)c2c(ncn2C)n(C)c1=O", "note": "[pentoxifyline]", "values": [
      {"measurement": "permeation into skin and bloodstream through the patch matrix", "setting": "[1]", "value": "cannot permeate"}
    ]},
    {"smiles": "CC(NCCn1cnc2c1c(=O)n(C)c(=O)n2C)C(O)c1ccccc1", "note": "(stereo not shown) [cafedrine]", "values": [
      {"measurement": "permeation into skin and bloodstream through the patch matrix", "setting": "[1]", "value": "cannot permeate"}
    ]},
    {"smiles": "O=C1CCc2ccc(OCCCCN3CCN(c4cccc(Cl)c4Cl)CC3)cc2N1", "note": "[aripiprazole, Aripiprazole]", "values": [
      {"measurement": "diffusion of drug from the patch through skin simulating membrane over time (system permeable / impermeable)", "setting": "[2]", "value": "impermeable"}
    ]},
    {"smiles": "CN(C)CCC[C@@]1(c2ccc(F)cc2)OCc2cc(C#N)ccc21.O=C(O)C(=O)O", "note": "[escitalopram oxalate, Escitalopram Oxalate]", "values": [
      {"measurement": "diffusion of drug from the patch through skin simulating membrane over time (system permeable / impermeable)", "setting": "[2]", "value": "permeable"}
    ]},
    {"smiles": "Nc1ccncc1", "note": "[4-aminopyridine]", "values": [
      {"measurement": "permeation and diffusion through patch over time", "setting": "[3]; patch: 23% glycerol, 16% gum Arabic, 11% medium MW chitosan, 48% lactic acid, dried 18 hours at 55° C., FIG. 4", "value": "allows permeation and diffusion"},
      {"measurement": "permeation and diffusion through patch over time", "setting": "[3]; patch: 36% glycerol, 15.3% PVP, 0.7% gum Arabic, 9.5% medium MW chitosan, 38.5% lactic acid, dried 5 hours at 80° C., FIG. 6", "value": "allows permeation and diffusion"},
      {"measurement": "permeation and diffusion through patch over time", "setting": "[3]; patch: 50% glycerol, 14% PVP, 18% medium MW chitosan, 18% lactic acid, dried 3 hours at 80° C., FIG. 5", "value": "allows permeation and diffusion"},
      {"measurement": "diffusion of drug from the patch through skin simulating membrane over time (system permeable / impermeable)", "setting": "[2]", "value": "permeable"}
    ]},
    {"smiles": "Cn1c(=O)c2c(ncn2CCNCC(O)c2ccc(O)c(O)c2)n(C)c1=O", "note": "(stereo not shown) [theodrenaline]", "values": [
      {"measurement": "permeation into skin and bloodstream through the patch matrix", "setting": "[1]", "value": "cannot permeate"}
    ]}
  ]
}
